61 molecules from patent US20230115176A1 (Ra Pharmaceuticals, Inc., priority 2019, published 2023) can be followed below.

Usually IC50 stands for the concentration that inhibits the measured activity by half. A high value points to a need for much substance. Broadly, the kinetic solubility is the concentration staying in solution when a stock, usually in DMSO, is diluted into the medium.

Converted amounts (≈) assume the structure as drawn.

The first series deals with T1, Human C5 (Homo sapiens, UniProt P01031).
T1 construct: purchased Complement Technology
T1 sequence (P01031 19-1676): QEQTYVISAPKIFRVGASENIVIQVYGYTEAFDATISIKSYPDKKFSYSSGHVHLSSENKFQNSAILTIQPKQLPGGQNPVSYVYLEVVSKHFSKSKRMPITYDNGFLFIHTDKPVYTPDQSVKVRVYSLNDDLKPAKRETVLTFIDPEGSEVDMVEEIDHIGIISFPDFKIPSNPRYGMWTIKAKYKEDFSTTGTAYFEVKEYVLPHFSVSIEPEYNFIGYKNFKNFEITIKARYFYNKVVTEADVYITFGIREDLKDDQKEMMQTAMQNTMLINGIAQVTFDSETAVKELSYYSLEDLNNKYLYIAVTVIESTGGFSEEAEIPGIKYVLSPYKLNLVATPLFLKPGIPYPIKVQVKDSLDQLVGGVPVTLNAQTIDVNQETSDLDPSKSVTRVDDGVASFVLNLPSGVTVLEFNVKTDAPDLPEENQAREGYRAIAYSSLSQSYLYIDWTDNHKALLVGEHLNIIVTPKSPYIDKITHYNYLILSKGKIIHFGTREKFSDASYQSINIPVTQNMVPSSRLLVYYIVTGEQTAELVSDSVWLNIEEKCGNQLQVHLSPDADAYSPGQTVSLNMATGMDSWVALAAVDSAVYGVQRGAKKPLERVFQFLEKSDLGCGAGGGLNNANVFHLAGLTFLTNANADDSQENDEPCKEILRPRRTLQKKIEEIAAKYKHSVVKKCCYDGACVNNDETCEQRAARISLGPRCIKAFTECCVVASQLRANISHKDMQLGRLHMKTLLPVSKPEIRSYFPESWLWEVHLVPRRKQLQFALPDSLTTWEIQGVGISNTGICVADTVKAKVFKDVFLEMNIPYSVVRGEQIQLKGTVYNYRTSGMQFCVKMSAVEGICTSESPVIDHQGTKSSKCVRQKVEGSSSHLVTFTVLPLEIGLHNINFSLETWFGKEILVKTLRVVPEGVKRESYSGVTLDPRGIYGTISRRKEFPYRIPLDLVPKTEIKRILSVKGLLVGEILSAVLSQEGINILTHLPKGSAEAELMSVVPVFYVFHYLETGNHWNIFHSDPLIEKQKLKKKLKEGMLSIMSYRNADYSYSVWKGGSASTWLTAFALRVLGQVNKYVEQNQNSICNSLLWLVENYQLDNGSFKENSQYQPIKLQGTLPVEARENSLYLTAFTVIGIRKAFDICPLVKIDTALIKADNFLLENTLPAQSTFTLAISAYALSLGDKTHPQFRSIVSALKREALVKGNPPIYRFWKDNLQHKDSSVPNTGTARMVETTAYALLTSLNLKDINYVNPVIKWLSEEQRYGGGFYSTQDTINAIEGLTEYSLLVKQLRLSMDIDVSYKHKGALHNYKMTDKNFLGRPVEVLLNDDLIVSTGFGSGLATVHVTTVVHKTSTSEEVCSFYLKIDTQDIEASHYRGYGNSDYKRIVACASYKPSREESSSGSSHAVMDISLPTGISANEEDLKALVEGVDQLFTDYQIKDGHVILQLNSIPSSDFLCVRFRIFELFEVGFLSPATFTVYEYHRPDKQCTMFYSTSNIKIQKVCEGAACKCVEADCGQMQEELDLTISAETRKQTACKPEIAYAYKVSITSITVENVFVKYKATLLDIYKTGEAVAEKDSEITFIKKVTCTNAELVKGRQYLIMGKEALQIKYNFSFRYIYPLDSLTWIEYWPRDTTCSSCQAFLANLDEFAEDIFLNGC
As to the kind of experiment: Red blood cell (RBC) hemolysis assay, luminescent (Example 13, Table 22). Also: 1.5% C5-depleted human serum. It is filed as cell-based. To be noted: sheep EA cells, […] C5-depleted human serum, 0.5 nM human C5, 1 hour 37° C., luminescence. The text has this: Compound CU0136 is a racemic mixture of Compound CU0186 and CU0187. Numbers in parenthesis following compound numbers indicate alternate enantiomers (as distinguished by retention time during chromatographical separation).
Molecule `COc1ccc(F)cc1CN1CCCN(c2ccc(OC)c(OCC3CCCC3)c2)C1=O` [CU0168] had an IC50 of 0.233 µM.
Consider `CCC#CCOc1cc(N2CCCN(Cc3cc(F)ccc3OC)C2=O)ccc1OC` [CU0169], for which half-maximal inhibition (IC50) was put at 0.0824 µM. Against the preceding molecule, the IC50 is about 2.8-fold lower.
The same measure, in the same setting: the value for `CCC(F)(F)CCOc1cc(N2CCCN(Cc3ccc(CC(=O)N(C)C)cc3OC)C2=O)ccc1OC` [CU0171] was 0.0451 µM; that for `CCCCCOc1cc(N2CCCN(Cc3ccc(CN4CCOCC4)cc3OC)C2=O)ccc1OC` [CU0172] was 0.0373 µM.
`CCC(F)(F)CCOc1cc(N2CCCN(Cc3ccc(CC(=O)N4CCCOCC4)cc3OC)C2=O)ccc1OC` [CU0174] yielded a half-maximal inhibitory concentration (IC50) of 0.0367 µM.
On the same count and under the same terms, the value for `CCC(F)(F)CCOc1cc(N2CCCN(Cc3ccccc3OC)C2=O)ccc1OC` [CU0176] was 0.111 µM; that for `C#CCCCOc1cc(N2CCCN(Cc3cc(F)ccc3OC)C2=O)ccc1OC` [CU0179] was 0.156 µM; that for `COc1ccc(F)cc1CN1CCCN(c2ccc(OC)c(OCc3ccc(C)cc3)c2)C1=O` [CU0180] was 0.411 µM.
The same measure, in the same setting: the value for `COc1ccc(F)cc1CN1CCCN(c2ccc(OC)c(OCc3cccc(C)c3)c2)C1=O` [CU0181] was 0.119 µM.
Same read-out and setting: the value for `COc1ccc(F)cc1CN1CCCN(c2ccc(OC)c(OCc3ccccc3C)c2)C1=O` [CU0182] was 0.936 µM; that for `COc1ccc(F)cc1CN1CCCN(c2ccc(OC)c(OCCCc3ccccc3)c2)C1=O` [CU0183] was 0.238 µM.
As to `COc1ccc(F)cc1CN1CCCN(c2ccc(OC)c(OCC[C@@H]3C[C@@H]4CC[C@H]3C4)c2)C1=O` [CU0184], it took 0.0324 µM to reach half-maximal inhibition (IC50).
On the same count and under the same terms, the value for `COc1ccc(F)cc1CN1CCCN(c2ccc(OC)c(OCCC3CCCC3)c2)C1=O` [CU0185] was 0.183 µM; that for `CCCCCOc1cc(N2CCCN(Cc3ccc(CCOCCN4CCCC4)cc3OC)C2=O)ccc1OC` [CU0189] was 0.413 µM; that for `CCCCCOc1cc(N2CCCN(Cc3ccc(CNC(=O)C4CN(C)C4)cc3OC)C2=O)ccc1OC` [CU0191] was 0.0879 µM.
The same measure, in the same setting: the value for `CCCCCOc1cc(N2CCCN(Cc3ccc(CNC(=O)OCC)cc3OC)C2=O)ccc1OC` [CU0192] was 0.0191 µM.
Still for that read-out and setting: the value for `COc1ccc(F)cc1CN1CCCN(c2ccc(OC)c(OCCc3ccccc3)c2)C1=O` [CU0193] was 0.045 µM; that for `CC/C=C\COc1cc(N2CCCN(Cc3cc(F)ccc3OC)C2=O)ccc1OC` [CU0194] was 0.0946 µM; that for `COc1ccc(F)cc1CN1CCCN(c2ccc(OC)c(OCCCC(F)(F)C(F)(F)F)c2)C1=O` [CU0195] was 0.049 µM.
In the case of `CCC(F)(F)CCOc1cc(N2CCCN(Cc3ccc(CC(=O)N4CCO[C@H](COC)C4)cc3OC)C2=O)ccc1OC` [CU0197], half-maximal inhibition (IC50) required 0.0316 µM.
The same measure, in the same setting: the value for `COc1ccc(F)cc1CN1CCCN(c2ccc(OC)c(OCC3CC4(CCC4)C3)c2)C1=O` [CU0198] was 0.0701 µM.
On the same count and under the same terms, the value for `COc1cc(CC(=O)N(C)C)ccc1CN1CCCN(c2ccc(OC)c(OCc3ccccc3)c2)C1=O` [CU0199] was 0.37 µM; that for `CCCCCOc1cc(N2CCCN(Cc3ccc(C(O)c4nccn4C)cc3OC)C2=O)ccc1OC` (stereo not shown) [CU0200] was 0.0089 µM.
On the same count and under the same terms, the value for `CCCCCOc1cc(N2CCCN(Cc3ccc(CNC(=O)OC4CC4)cc3OC)C2=O)ccc1OC` [CU0202] was 0.0108 µM; that for `CCCCCOc1cc(N2CCCN(Cc3ccc(CCOC(C)C)cc3OC)C2=O)ccc1OC` [CU0203] was 0.03 µM; that for `CCCCCOc1cc(N2CCCN(Cc3ccc(CCOC(=O)N(C)C)cc3OC)C2=O)ccc1OC` [CU0204] was 0.0216 µM.
On to `COc1ccc(F)cc1CN1CCCN(c2ccc(OC)c(OCCC[C@H]3C[C@@H]3C)c2)C1=O` [CU0205], for which the IC50 turned out to be 0.0051 µM.
Still for that read-out and setting: the result for `COc1ccc(F)cc1CN1CCCN(c2ccc(OC)c(OCCC[C@H]3C[C@H]3C)c2)C1=O` [CU0206] reads 0.0119 µM; that for `CCCCCOc1cc(N2CCCN(Cc3ccc(Cc4ncco4)cc3OC)C2=O)ccc1OC` [CU0208], 0.0591 µM.
Still for that read-out and setting: the result for `CCCCCOc1cc(N2CCCN(Cc3ccc(Cc4nnn[nH]4)cc3OC)C2=O)ccc1OC` [CU0209] reads 0.0552 µM.
`CCCCCOc1cc(N2CCCN(Cc3ccc(CC#N)cc3OC)C2=O)ccc1OC` [CU0210] registered an IC50 of 0.0329 µM.
On the same count and under the same terms, the result for `COc1ccc(F)cc1CN1CCCN(c2ccc(OC)c(OCCc3ccccc3C)c2)C1=O` [CU0215] reads 0.0341 µM; that for `COc1ccc(F)cc1CN1CCCN(c2ccc(OC)c(OCCC3CCCCC3)c2)C1=O` [CU0216], 0.027 µM.
`COc1ccc(F)cc1CN1CCCN(c2ccc(OC)c(OCCCC(C)C)c2)C1=O` [CU0217] came in with an IC50 of 0.0183 µM. This IC50 and that of the molecule before are within 1.5-fold of each other.
Same read-out and setting: the value for `COc1ccc(F)cc1CN1CCCN(c2ccc(OC)c(OCCc3ccc(C)cc3)c2)C1=O` [CU0219] was 0.221 µM.
The same measure, in the same setting: the value for `COc1ccc(F)cc1CN1CCCN(c2ccc(OC)c(OCCc3cccc(C(F)(F)F)c3)c2)C1=O` [CU0220] was 0.254 µM; that for `COc1ccc(F)cc1CN1CCCN(c2ccc(OC)c(OCc3cccc(OC(F)(F)F)c3)c2)C1=O` [CU0221] was 0.741 µM.
On the same count and under the same terms, the value for `COc1ccc(F)cc1CN1CCCN(c2ccc(OC)c(OCCCC3CCCCC3)c2)C1=O` [CU0222] was 0.0699 µM; that for `COc1ccc(F)cc1CN1CCCN(c2ccc(OC)c(OCc3cccc(C(F)(F)F)c3)c2)C1=O` [CU0223] was 0.4 µM.
For `C/C=C\CCCOc1cc(N2CCCN(Cc3cc(F)ccc3OC)C2=O)ccc1OC` [CU0225], the IC50 stood at 0.0291 µM.
Same read-out and setting: the value for `COc1cccc(COc2cc(N3CCCN(Cc4cc(F)ccc4OC)C3=O)ccc2OC)c1` [CU0227] was 0.362 µM; that for `CCCCCOc1cc(N2CCCN(Cc3ccnc4c3ccn4CC(=O)N3CCCOCC3)C2=O)ccc1OC` [CU0228] was 0.0218 µM; that for `CCCCCOc1cc(N2CCCN(Cc3ccc(C)c4c3ccn4CC(=O)N(C)C)C2=O)ccc1OC` [CU0229] was 0.0889 µM.
Same read-out and setting: the value for `CCCCCOc1cc(N2CCCN(Cc3ccc(F)c4c3ccn4CC(=O)N(C)C)C2=O)ccc1OC` [CU0230] was 0.0605 µM.
For the molecule `CCCCCOc1cc(N2CCCN([C@@H](C)c3cccc4c3ccn4CC(=O)N(C)C)C2=O)ccc1OC` [CU0233], inhibition was half-maximal at 4.26 µM (IC50).
The same measure, in the same setting: the result for `CCCCCOc1cc(N2CCCN(Cc3cc(C)cc4c3ccn4CC(=O)N(C)C)C2=O)ccc1OC` [CU0236] reads 0.203 µM; that for `CCCCCOc1cc(N2CCCN(Cc3cc(F)cc4c3ccn4CC(=O)N(C)C)C2=O)ccc1OC` [CU0237], 0.0439 µM.
On the same count and under the same terms, the value for `CCCCCOc1cc(N2CCCN(Cc3cccc4c3cc(C)n4CC(=O)N(C)C)C2=O)ccc1OC` [CU0238] was 0.061 µM; that for `COc1ccc(N2CCCN(Cc3cccc4[nH]ccc34)C2=O)cc1OCCCC(C)(F)F` [CU0240] was 0.0422 µM; that for `CCCCCOc1cc(N2CCCN(Cc3cccc4c3ccn4C3CCN(C4CC4)C3=O)C2=O)ccc1OC` (stereo not shown) [CU0241] was 0.0107 µM.
The same measure, in the same setting: the result for `CCCCCOc1cc(N2CCCN(Cc3cccc4c3ccn4CC(=O)N(C)C3CCN(CC)C3)C2=O)ccc1OC` (stereo not shown) [CU0242] reads 0.0082 µM; that for `CCCCCOc1cc(N2CCCN(Cc3ccnc4c3ccn4CC3CCCO3)C2=O)ccc1OC` (stereo not shown) [CU0248], 0.101 µM.
In turn, `CCCCCOc1cc(N2CCCN(Cc3ccnc4c3ccn4CCC3CCOCC3)C2=O)ccc1OC` [CU0249] showed an IC50 of 0.386 µM.
The same measure, in the same setting: the value for `CCCCCOc1cc(N2CCCN(Cc3ccnc4c3ccn4CCN3CCOC3=O)C2=O)ccc1OC` [CU0250] was 0.217 µM; that for `CCCCCOc1cc(N2CCCN(Cc3ccnc4c3ccn4CC3=NCCN3C)C2=O)ccc1OC` [CU0251] was 0.034 µM.
Still for that read-out and setting: the result for `COc1ccc(N2CCCN(Cc3ccnc4c3ccn4CC(=O)N(C)C)C2=O)cc1OCc1ccccc1` [CU0252] reads 0.825 µM.
Still for that read-out and setting: the result for `COc1ccc(N2CCCN(Cc3ccnc4c3ccn4CC(=O)N(C)C)C2=O)cc1OCC[C@@H]1C[C@@H]2CC[C@H]1C2` [CU0253] reads 0.0419 µM; that for `CCCCCOc1cc(N2CCCN(Cc3ccnc4c3ccn4CCN3CCCC3)C2=O)ccc1OC` [CU0254], 0.0187 µM; that for `COc1ccc(N2CCCN(Cc3ccnc4c3ccn4CC(=O)N(C)C)C2=O)cc1OCCC1CCCC1` [CU0259], 0.075 µM.
Take `COc1ccc(N2CCCN(Cc3ccnc4c3ccn4CC(=O)N(C)C)C2=O)cc1OCCCC(C)(F)F` [CU0262]: half-maximal inhibition (IC50) was put at 0.0346 µM.

System in a further series: not listed separately
Briefly: Kinetic solubility in PBS pH 7.4, HPLC-UV (Example 21, Table 27). It is filed as physicochemical. The following applies: phosphate buffered saline, aqueous buffer, kinetic from dmso stock, 0.5 M PBS, shaken minimum 24 h at approximately 25° C., HPLC-UV 270 nm. The protocol: Compounds were analyzed for kinetic solubility values using a standard kinetic solubility assay format. First, test compounds were dissolved in DMSO (Aldrich Chemical Co., Milwaukee, Wis., USA) at a concentration of 0.010 mol/L and used to prepare standard calibrators in DMSO solution. 500.0 μM, 250.0 μM, 125.0 μM, 62.5 μM, 31.2 μM, and 15.6 μM standards were prepared in a Greiner UV-Star clear V-bottom 96-well plate (Greiner-Bio One, Germany) for generating a standard curve. Using Alfa Aesar's Sodium phosphate, 0.2 M buffer solution, pH 7.4 (Alfa Aesar, Haverhill, Mass., USA), aqueous phosphate buffered saline (PBS) was prepared by diluting with Milli-Q water for a final concentration of 0.05 M. The pH of the solution was adjusted to 7.4±0.1 using 0.1 M hydrochloric acid (Fisher Scientific Waltham, Mass., USA) or 0.1 M aqueous sodium hydroxide (Fisher Scientific Waltham, Mass., USA).
10 μL of 0.010 mol/L DMSO test compound stock solutions were pipetted to separate 1.5 mL centrifuge tubes in triplicate. To these tubes, 190 μl of 0.05 M PBS was added. Each tube was gently vortexed for 5 sec. The tubes were shaken for a minimum of 24 h at approximately 25° C. After shaking, the solutions were transferred to 0.5 mL centrifuge filter tubes (MilliporeSigma, Burlington, Mass., USA) and centrifuged at 10,000 rpm for 5 min. After centrifugation, supernatants were collected and used for compound concentration analysis.
Compound concentrations in each solution were determined using high pressure liquid chromatography (HPLC) with ultraviolet (UV) detection and comparison with external standards. For HPLC, a Waters Acquity CSH Phenyl-Hexyl column (2.1 mm×50 mm, 1.7 μm) was used together with a generic gradient method on a Waters H-class system equipped with a diode array detector: Solvent A=0.1% formic acid in water, Solvent B=0.1% formic acid in acetonitrile (MilliporeSigma, Burlington, Mass., USA), flow=0.65 mL/min, (t=0 min: 95% A-5% B, t=4.75 min: 0% A-100% B, t=4.85 min: 0% A-100% B, t=4.86 min: 95% A-5% B, t=5 min: 95% A-5% B). UV quantifications were performed at 270 nm. Solution concentrations were calculated using Microsoft Excel.
The molecule `COc1ccc(N2CCCN(Cc3ccnc4c3ccn4CC(=O)N(C)C)C2=O)cc1OCCC[C@H]1C[C@@H]1C` (racemic) [CU0752] displayed a solubility (kinetic) of 75 µM (≈ 40 µg/mL). That is a double-digit micromolar value.
